Experimental findings from patent US12629374B2, “Antimalarial agents” (Merck Sharp & Dohme LLC, priority 2020, dated 2026) are described below.

Where a name gives a salt, the structure may show the parent alone.

The term EC50 denotes the concentration at which the effect is half-maximal.

One test deals with ring stage parasites. The test can be described thus: Parasite growth potency assay, 72 hours, LDH readout. The test is classed as cell-based. The conditions noted are these: 72 h, parasite growth measured by LDH assay after 72 hours at 37° C.; 0.7% rings, 2% haematocrit; read-out: EC50. An outline of the steps: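 Parasite growth was quantified by LDH assay after a −80 °C freeze-thaw. Before that, compound was incubated for 72 h at 37 °C under humidified gas with ring-stage cultures adjusted to 0.7% parasitemia and 2% haematocrit in serum- and albumax-supplemented RPMI-Hepes.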
Regarding `CCC1(CC)CC(=O)N([C@H](CCOC(F)F)c2cccc(C(=O)N[C@H]3CCOc4ccccc43)c2)C(=N)N1` [Example 164, [1-[1-[3-[[(4S)-chroman-4-yl]carbamoyl]phenyl]-3-(difluoromethoxy)propyl]-4,4-diethyl-6-oxo-hexahydropyrimidin-2-ylidene]ammonium; 2,2,2-trifluoroacetate], the EC50 was 0.9 nM.
Still for that read-out and setting: as for `COCC[C@H](c1cccc(C(=O)N[C@@H]2c3ccccc3C3(CC3)[C@H]2O)c1)N1C(=N)NC(C)(C)CC1=O` [Example 167, [1-[(1R)-1-[3-[(2′-hydroxyspiro[cyclopropane-1,3′-indane]-1′-yl)carbamoyl]phenyl]-3-methoxy-propyl]-4,4-dimethyl-6-oxo-hexahydropyrimidin-2-ylidene]ammonium; 2,2,2-trifluoroacetate], the figure is 3.1 nM; as for `CCC[C@H](c1cccc(C(=O)NC2CC(C)(C)Oc3ccccc32)c1)N1C(=N)NC(CC)(CC)CC1=O` (stereo in doubt) [Example 62A, [1-[1-[3-[(2,2-dimethylchroman-4-yl)carbamoyl]phenyl]butyl]-4,4-diethyl-6-oxo-hexahydropyrimidin-2-ylidene]ammonium; 2,2,2-trifluoroacetate], 0.4 nM.
`CCC1(CC)CC(=O)N([C@@H](c2cccc(C(=O)N[C@H]3CCOc4ccccc43)c2)C23CC(C2)C3)C(=N)N1` [Example 32, [1-[1-bicyclo[1.1.1]pentanyl-[3-[[(4S)-chroman-4-yl]carbamoyl]phenyl]methyl]-4,4-diethyl-6-oxo-hexahydropyrimidin-2-ylidene]ammonium; 2,2,2-trifluoroacetate]: the EC50 was determined as 2 nM.
Turning to `CC#CCC[C@H](c1cccc(C(=O)N[C@H]2CC(C)(C)Oc3ccccc32)c1)N1C(=N)NC(CC)(CC)CC1=O` (stereo in doubt) [Example 83B, [1-[1-[3-[(2,2-dimethylchroman-4-yl)carbamoyl]phenyl]hex-4-ynyl]-4,4-diethyl-6-oxo-hexahydropyrimidin-2-ylidene]ammonium; 2,2,2-trifluoroacetate], the EC50 came out at 0.4 nM.
In the case of `CCC[C@H](c1cncc(C(=O)N[C@H]2CCOc3ccccc32)c1)N1C(=N)NC(CC)(CC)CC1=O` [Example 50, [1-[1-[5-[[(4S)-chroman-4-yl]carbamoyl]pyridin-1-ium-3-yl]butyl]-4,4-diethyl-6-oxo-hexahydropyrimidin-2-ylidene]ammonium; 2,2,2-trifluoroacetate], the EC50 stood at 0.4 nM.
For `CCC1(CC)CC(=O)N([C@H](CCO)c2cccc(C(=O)N[C@H]3CCOc4ccccc43)c2)C(=N)N1` [Example 59, [1-[1-[3-[[(4S)-chroman-4-yl]carbamoyl]phenyl]-3-hydroxy-propyl]-4,4-diethyl-6-oxo-hexahydropyrimidin-2-ylidene]ammonium; 2,2,2-trifluoroacetate], the EC50 was 4.7 nM.
For the compound `CCC1(CC)CC(=O)N(Cc2cccc(C(=O)N[C@H]3CCOc4ccccc43)c2)C(=N)N1` [Example 11, [1-[[3-[[(4S)-chroman-4-yl]carbamoyl]phenyl]methyl]-4,4-diethyl-6-oxo-hexahydropyrimidin-2-ylidene]ammonium; 2,2,2-trifluoroacetate], the EC50 stood at 1.5 nM.
Turning to `CCC1(CC)CC(=O)N(C(CCOC)c2ccc(C(F)(F)F)c(C(=O)N[C@@H]3c4ccccc4OC(C)(C)[C@H]3O)c2)C(=N)N1` (stereo partly drawn) [Example 246, 5-[1-(4,4-diethyl-2-imino-6-oxo-hexahydropyrimidin-1-yl)-3-methoxy-propyl]-N-[(3S,4R)-3-hydroxy-2,2-dimethyl-chroman-4-yl]-2-(trifluoromethyl)benzamide], the EC50 was 1.74 nM.
On the same count and under the same terms, as for `CCC1(CC)CC(=O)N(Cc2cccc(C(=O)N[C@@H]3c4cc(F)ccc4C[C@H]3O)c2)C(=N)N1` (stereo in doubt) [Example 199, [4,4-diethyl-1-[[3-[(6-fluoro-2-hydroxy-indan-1-yl)carbamoyl]phenyl]methyl]-6-oxo-hexahydropyrimidin-2-ylidene]ammonium; 2,2,2-trifluoroacetate], the figure is 6.2 nM.
For the compound `CCC1(CC)CC(=O)N(C(CCOC)c2ccc(C(F)(F)F)c(C(=O)N[C@@H]3c4ccccc4C[C@@]3(C)O)c2)C(=N)N1` (stereo partly drawn) [Example 241, 5-[1-(4,4-diethyl-2-imino-6-oxo-hexahydropyrimidin-1-yl)-3-methoxy-propyl]-N-[(1R,2R)-2-hydroxy-2-methyl-indan-1-yl]-2-(trifluoromethyl)benzamide], the EC50 is 9.84 nM.
On the same count and under the same terms, as for `CC1(C)CC(=O)N(Cc2cccc(C(=O)N[C@@H]3c4cc(F)ccc4OC(C)(C)[C@H]3O)c2)C(=N)N1` [Example 182, [1-[[3-[[(3S,4R)-6-fluoro-3-hydroxy-2,2-dimethyl-chroman-4-yl]carbamoyl]phenyl]methyl]-4,4-dimethyl-6-oxo-hexahydropyrimidin-2-ylidene]ammonium; 2,2,2-trifluoroacetate], the figure is 5.4 nM.
Take `CCC1(CC)CC(=O)N([C@H](C)c2cccc(C(=O)N[C@@H]3c4ccccc4OC(C)(C)[C@H]3O)c2)C(=N)N1` [Example 193, [4,4-diethyl-1-[(1R)-1-[3-[[(3S,4R)-3-hydroxy-2,2-dimethyl-chroman-4-yl]carbamoyl]phenyl]ethyl]-6-oxo-hexahydropyrimidin-2-ylidene]ammonium; 2,2,2-trifluoroacetate]: the EC50 amounted to 0.6 nM.
On to `CCC1(CC)CC(=O)N([C@H](CCOC)c2cccc(C(=O)N[C@@H]3c4cc(F)ccc4C[C@H]3O)c2)C(=N)N1` [Example 170, [4,4-diethyl-1-[(1R)-1-[3-[(6-fluoro-2-hydroxy-indan-1-yl)carbamoyl]phenyl]-3-methoxy-propyl]-6-oxo-hexahydropyrimidin-2-ylidene]ammonium; 2,2,2-trifluoroacetate], for which the EC50 came out at 0.7 nM.
With `CCC[C@@H](c1cccc(C(=O)N[C@H]2CCOc3ccccc32)c1)N1C(=N)NC(CC)(CC)CC1=O` [Example 13B, [1-[1-[3-[[(4S)-chroman-4-yl]carbamoyl]phenyl]butyl]-4,4-diethyl-6-oxo-hexahydropyrimidin-2-ylidene]ammonium; 2,2,2-trifluoroacetate], the 50% effective concentration (EC50) came to 43.8 nM.
For the compound `CCC1(CC)CC(=O)N(Cc2cccc(C(=O)N[C@H]3CC(C)(C)Oc4cc(F)ccc43)c2)C(=N)N1` (stereo in doubt) [Example 93, [4,4-diethyl-1-[[3-[(7-fluoro-2,2-dimethyl-chroman-4-yl)carbamoyl]phenyl]methyl]-6-oxo-hexahydropyrimidin-2-ylidene]ammonium; 2,2,2-trifluoroacetate], the EC50 came out at 1.8 nM.
Regarding `CCC[C@H](c1cccc(C(=O)N[C@@H]2CC3(CCC3)Oc3ccccc32)c1)N1C(=N)NC(CC)(CC)CC1=O` (stereo in doubt) [Example 212A, [4,4-diethyl-6-oxo-1-[(1R)-1-[3-[[(4S)-spiro[chromane-2,1′-cyclobutane]-4-yl]carbamoyl]phenyl]butyl]hexahydropyrimidin-2-ylidene]ammonium; 2,2,2-trifluoroacetate], the EC50 worked out at 8 nM.
In the case of `CC(C)[C@]1(C)CC(=O)N([C@@H](c2cccc(C(=O)N[C@@H]3c4ccccc4C[C@H]3O)c2)C23CC(C2)C3)C(=N)N1` [Example 28, [(4S)-1-[1-bicyclo[1.1.1]pentanyl-[3-[[(1R,2R)-2-hydroxyindan-1-yl]carbamoyl]phenyl]methyl]-4-isopropyl-4-methyl-6-oxo-hexahydropyrimidin-2-ylidene]ammonium; 2,2,2-trifluoroacetate], the EC50 stood at 1.1 nM.
For `CCC1(CC)CC(=O)N([C@H](CCOC)c2cccc(C(=O)N[C@@H]3c4ccccc4C[C@@H]3O)c2)C(=N)N1` [Example 202, [4,4-diethyl-1-[(1R)-1-[3-[[(1R,2S)-2-hydroxyindan-1-yl]carbamoyl]phenyl]-3-methoxy-propyl]-6-oxo-hexahydropyrimidin-2-ylidene]ammonium; 2,2,2-trifluoroacetate], the EC50 amounted to 5.3 nM.

Staying with this test, now noted: parasite growth measured by LDH assay after 72 hours at 37° C.; 0.7% rings, 2% haematocrit; read-out: EC50.
Regarding `COCC[C@H](c1cccc(C(=O)N[C@@H]2c3ccccc3C[C@@]2(C)O)c1)N1C(=N)NC(C)(C)CC1=O` [Example 166A, N-[(1R,2R)-2-hydroxy-2-methyl-indan-1-yl]-3-[(1R)-1-(2-imino-4,4-dimethyl-6-oxo-hexahydropyrimidin-1-yl)-3-methoxy-propyl]benzamide], the EC50 was 52.1 nM.
`CCC[C@H](c1cccc(C(=O)N[C@@H]2c3ccccc3CC2(C)O)c1)N1C(=N)NC(CC)(CC)CC1=O` (stereo partly drawn) [Example 122D, 3-[(1R)-1-(4,4-diethyl-2-imino-6-oxo-hexahydropyrimidin-1-yl)butyl]-N-(2-hydroxy-2-methyl-indan-1-yl)benzamide]: the EC50 was determined as 0.6 nM.
Still for that read-out and setting: as for `CCC1(CC)CC(=O)N(C(CC(OC)C(F)(F)F)c2cccc(C(=O)N[C@@H]3c4ccccc4C[C@H]3O)c2)C(=N)N1` (single isomer, unassigned) [Example 238A], the figure is 1.94 nM.

Still in this test, the particulars now being: parasite growth measured by LDH assay after 72 hours at 37° C.; 0.7% rings, 2% haematocrit; trifluoroacetate; read-out: EC50.
In the case of `CCC1(CC)CC(=O)N(Cc2cccc(C(=O)N[C@H]3C[C@H](C(F)(F)F)Oc4ccccc43)c2)C(=N)N1` (stereo in doubt) [Example 97, [4,4-diethyl-6-oxo-1-[[3-[[2-(trifluoromethyl)chroman-4-yl]carbamoyl]phenyl]methyl]hexa-hydropyrimidin-2-ylidene]ammonium; 2,2,2-trifluoroacetate], the EC50 turned out to be 10.6 nM.
Turning to `CCC1(CC)CC(=O)N([C@H](CCOC)c2cccc(C(=O)N[C@@H]3c4ccccc4OC3(C)CO)c2)C(=N)N1` (single isomer, unassigned) [Example 180A, trifluoroacetate], the EC50 amounted to 1.5 nM.
Take `CCC1(CC)CC(=O)N(Cc2cccc(C(=O)N[C@@H]3c4ccccc4OC3(C)CO)c2)C(=N)N1` (stereo in doubt) [Example 187B, [4,4-diethyl-1-[[3-[[2-(hydroxymethyl)-2-methyl-3H-benzofuran-3-yl]carbamoyl]phenyl]methyl]-6-oxo-hexahydropyrimidin-2-ylidene]ammonium; 2,2,2-trifluoroacetate]: the EC50 worked out at 19.3 nM.
